Measured values published in US20260171190A1, “ASSESSMENT OF GR CELLULAR SIGNALING PATHWAY ACTIVITY USING MATHEMATICAL MODELLING OF TARGET GENE EXPRESSION” (priority 2021, published 2026).
Like-named read-outs stand apart in the source and are kept apart here.

Test system: GR cellular signaling pathway
Protocol: Triple Negative Breast cancer cell line (MDA-MB-231) treated for 4, 8, 12 hrs with vehicle, 100 nM dexamethasone, 100 nM dexamethasone and 100 nM mifrepristone (GCR antagonist), or 100 nM dexamethasone and 100 nM CORT108297 (GCR antagonist).
GR pathway activity scores are presented on a normalized 0-100 scale.

Structure (SMILES)	antagonism of the dexamethasone effect on GR pathway activity	antagonism of the dexamethasone effect on GR pathway activity (MDA-MB-231, 100 nM dexamethasone and 100 nM antagonist, 4, 8, 12 hrs)
CC#C[C@]1(O)CC[C@H]2[C@@H]3CCC4=CC(=O)CCC4=C3[C@@H](c3ccc(N(C)C)cc3)C[C@@]21C [Mifrepristone]	strong dexamethasone antagonist	–
CCOC[C@]12Cc3cnn(-c4ccc(F)cc4)c3C=C1CCN(S(=O)(=O)c1ccc(C(F)(F)F)cc1)C2 [CORT108297]	–	minimally effective
